Experimental data from patent publication US7375124B2, “Use of α-phenylthiocarboxylic and α-phenyloxycarboxylic acids with serum-glucose-lowering and serum-lipid-lowering activity” (Sigma-Tau Industrie Farmaceutiche Riunite S.p.A., priority 2002, dated 2008).

Experiments:
[1] = biological target: T1, PPARγ (Mus musculus, UniProt P37238); assay: Transactivation assay mediated by PPARγ in NIH-3T3 cells (CAT reporter); type: cell-based
T1 construct: expressed in transfected cells; host or cells: NIH-3T3 (mouse embryonal fibroblasts)
T1 sequence (P37238 1-475 isoform P37238-2): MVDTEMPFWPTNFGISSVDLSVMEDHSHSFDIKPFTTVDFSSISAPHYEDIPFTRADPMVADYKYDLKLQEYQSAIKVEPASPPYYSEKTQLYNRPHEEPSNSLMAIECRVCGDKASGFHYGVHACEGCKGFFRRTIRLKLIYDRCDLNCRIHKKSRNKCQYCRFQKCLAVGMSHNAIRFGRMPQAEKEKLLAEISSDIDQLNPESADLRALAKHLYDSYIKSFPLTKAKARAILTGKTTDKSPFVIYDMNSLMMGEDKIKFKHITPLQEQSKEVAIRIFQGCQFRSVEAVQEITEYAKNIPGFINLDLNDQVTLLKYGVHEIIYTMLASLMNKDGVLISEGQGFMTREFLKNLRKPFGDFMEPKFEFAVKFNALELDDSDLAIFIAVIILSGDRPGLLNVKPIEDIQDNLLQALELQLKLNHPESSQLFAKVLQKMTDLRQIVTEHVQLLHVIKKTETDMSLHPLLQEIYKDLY
Text: A transactivation assay specific for PPARγ thus requires the simultaneous presence of the following in the preselected cell line: • a) a sufficient amount of PPARγ; • b) a sufficient amount of the 9 cis-retinoic acid receptor (RXR); • c) a chimeric plasmid containing the reporter gene controlled by a PPRE, located upstream of a viral heterologous promoter. In our case the reporter gene is chloramphenicol-acetyl transferase (CAT).
In the transactivation assay used, the preselected cells are transfected with the expression vector pSG5 Stop-mPPARg1 which allows the synthesis of the PPARγ receptor by the transfected cell. Simultaneously, a plasmid reporter (pBLCAT2-PPRE) is transfected which contains a peroxisome proliferator response element (PPRE) isolated by the gene promoter for acyl-CoA oxidase, upstream of the heterologous promoter of viral thymidine kinase (TK) fused with the reporter gene CAT. Since the endogenous cell levels of the RXR receptor are sufficiently high, it is not necessary to transfect an expression vector specific for RXR as well. […] Therefore, any increase in CAT levels will be the result of increased gene transcription dependent upon the dimerisation of PPARγ with RXR and upon the heterodimer bond formed with the peroxisome proliferator response element. Together with the expression vector and the reporter vector the cells are also transfected with the plasmid pCH110 which provides the internal control for the efficiency of transfection and the normalisation of the results
A cell line of mouse embryonal fibroblasts (NIH-3T3) was used [Hogan J. C. et al., Biochem Biophys Res Commun. 287 (2), 484-92 (2001)]. The cells were transfected with the reporter plasmid, the expression plasmid coding for the PPARγ receptor and the control vector pCH110. The cells were exposed to increasing concentrations of the study compounds and CAT activity was evaluated. Untreated cells were used as controls.
Mouse embryonal fibroblasts (NIH-3T3) were cultured according to the usual cell culture techniques, at 37° C. in a 5% v/v carbon dioxide atmosphere using as the growth medium DMEM (Dulbecco's modified Eagle's medium) modified with 3.7 g/l of sodium bicarbonate, 4 mM L-glutamine, 4.5 g/l of glucose, 1 mM sodium pyruvate and 10% v/v of calf serum, in the presence of streptomycin 100 μg/ml and penicillin 100 U/ml final.
The cells were co-transfected using the transfection reagent FuGENE6 (Roche), already described in the previous example. Twenty-four hours prior to transfection the cells were plated at a density of 8.0×10^4 cells/well in 12-well plates and maintained at 37° C. in a 5% v/v CO2 atmosphere. The culture medium, devoid of serum, was replaced 2 hours before transfection, and then the cells were treated with the transfection reagent FuGENE6, as described in the previous example. After 5 hours, the transfection medium was replaced by 1 ml of culture medium complete with serum and antibiotics in the presence or absence of the molecules to be tested at 3 different concentrations (2, 20 and 100 μM). Rosiglitazone, a known ligand of PPARγ, was used as the positive reference compound.
The cell protein extracts were prepared and the CAT activity assay was conducted exactly as described in the previous example.
As an internal control for the normalisation of the CAT activity in relation to the transfection efficiency, β-galactosidase activity coded for by the corresponding gene in the co-transfected plasmid pCH110 was used.
β-galatosidase activity was measured exactly as described in the previous example.
For the normalisation of the CAT assay results in relation to […] activity the formula described in the previous example was used.

[2] = system: C57BL/KsJ db/db mouse; assay: Antidiabetic and serum-lipid-lowering activity in the db/db mouse (Experiments I and II); conditions: Experiment II; for Glucose: blood
Text: Plasma levels of glucose, insulin, triglycerides, cholesterol, free fatty acids and urea were checked for a well-matched distribution of mice in the treatment groups.
At the start of treatment the body weights of the mice were checked and arrangements were made for monitoring water and feed consumption.
In the course of the experiment, serum glucose levels, oral glucose tolerance test (OGTT) findings, a number of lipid status parameters and weight gain were monitored.

[3] = after 12 days' treatment, postabsorption, 7.5 hours after last treatment, mean ± S.E.

- Activation of the gene-reporter CAT as a percentage of the reference compound (rosiglitazone 2 μM = 100%) ([1]; 2 μM): 28.6%
- Activation of the gene-reporter CAT as a percentage of the reference compound (rosiglitazone 2 μM = 100%) ([1]; 20 μM): 61.2%
- Activation of the gene-reporter CAT as a percentage of the reference compound (rosiglitazone 2 μM = 100%) ([1]; 100 μM): 114.3%
- Variation % (final b.w.) vs control ([2]; after 12 days' treatment): +5%
SMILES: CC(C)(Sc1cccc(OCCc2ccc(Cl)cc2)c1)C(=O)O [Example 2, 2-[3-[2-(4-chlorophenyl)ethoxy]phenylthio]-2-methylpropanoic acid]
- Variation % (glucose) vs control ([2]; after 9 days' treatment, postabsorption, 8 hours after last treatment): −66%
- Variation % (AUC glucose at OGTT) vs control ([2]; after 11 days' treatment, OGTT glucose 3 g/kg): −43%
- AUC glucose at OGTT ([2]; after 11 days' treatment, OGTT glucose 3 g/kg, fasting 18 hours, 5 hours after last treatment, mean ± S.E.): 24517 ± 2261 a.u.
- Variation % (glucose) vs control ([2]; after 11 days' treatment, fasting 18 hours, 5 hours after last treatment): −48%
- Variation % (HDL-cholesterol) vs control ([2]; after 12 days' treatment): +19%
- Variation % (triglycerides) vs control ([2]; after 12 days' treatment): −44%
- Glucose (plasma) ([2]; after 12 days' treatment, postabsorption (fasting 9 a.m. to 4.30 p.m.), 7.5 hours after last treatment, mean ± S.E.): 263 ± 30 mg/dL
- Variation % (plasma glucose) vs control ([2]; after 12 days' treatment, postabsorption, 7.5 hours after last treatment): −54%
- HDL-choles. (plasma) [2, 3]: 102.5 ± 4.7Δ mg/dl
- Triglycerides (plasma) [2, 3]: 48.6 ± 2.5 mg/dL
- Glucose ([2]; after 9 days' treatment, postabsorption (fasting 9 a.m. to 5 p.m.), 8 hours after last treatment, mean ± S.E.): 155 ± 21 mg/dL
- Glucose ([2]; after 11 days' treatment, fasting 18 hours, 5 hours after last treatment, mean ± S.E.): 128 ± 8 mg/dL
- Final b.w. ([2]; final body weight after 12 days' treatment, postabsorption condition, mean ± S.E.): 39.4 ± 0.9 g
- Variation % (initial b.w.) vs control ([2]; initial body weight): −3%
- Initial b.w. ([2]; initial body weight, postabsorption condition, mean ± S.E.): 37.8 ± 0.5 g
